Data on one molecule can be found in patent publication US20240299353A1, “COMPOSITIONS AND METHODS FOR TREATING […] 5-MEO-DMT” (Alvarius Pharmaceuticals Ltd., priority 2021, published 2024).

Each structure is given as a SMILES string. Where only a bound is given, the exact number is not on record here.

One data set concerns FosB. Put plainly: Western blot of FosB in brain regions, chronic cocaine ± 5-MeO-DMT. It counts as in vivo, Male Wistar rats. From the text:
Male Wistar rats aged 7 weeks were acclimatized to the facility for 1 week prior to the beginning of the study. […] Animals were euthanized 23- or 119-hours following vehicle or 5-MeO-DMT administration.
Following euthanasia brain regions of interest were isolated. Briefly, the olfactory bulbs were removed before the brain was placed in a rat brain matrix (FIG. 2A). Sterile blades were inserted at positions 2 and 3 (FIG. 2B) to extract a coronal slice containing the Bregma+˜0.2-+˜2.2 coordinates (FIG. 2C). From this tissue slice a blunted 12 G needle was used to punch dissect the NAc and dorsal striatum (DS) (FIG. 2D-2E) identified using the rat brain atlas (Panxinos and Watson 2nd edition). The PFC, hippocampus (Hip) and amygdala (Amyg) were then blunt dissected (FIG. 3A-3D). All regions were frozen in liquid nitrogen and stored at −80° C. until processed.
These treatment groups were used for the molecular assessment of addiction-linked markers.
Determination of protein concentration—a bicinchoninic acid assay (BCA, ThermoFisher) was conducted to determine the total protein concentration in tissue lysates following manufacturer's instructions. Briefly, bovine serum albumin (BSA) standards were prepared in a serial dilution (0-2.0 mg protein/ml) and 200 μl working reagent (50:1, reagent A: reagent B) was added to each of the standards and samples in a 96 well plate (Greiner). For tissue lysates a 1:10 dilution was performed with cell lysis buffer to ensure absorbance values lay within the working range established by the standards. All samples and standards were added in duplicate. The plate was covered and incubated for 30 mins at 37° C. before absorbance was read at 562 nm on a plate reader (SpectraMax M3). The absorbance values were used to form a standard curve of known protein concentrations and protein concentration of samples were derived using the equation of the line. All samples were standardized to the lowest protein concentration using distilled H20 (dH2O).
SDS-PAGE and Western Blotting—Following equalisation of protein concentrations, 6× sample loading buffer (15% SDS, 15% […], 50% glycerol, 0.01% bromophenol blue, […]) was added to each sample using a dilution factor of 1:5 of the total volumes before boiling at 100° C. for 5 mins. Samples were stored at −20° C. until use. One dimensional sodium-dodecyl-sulphate polyacrylamide gel electrophoresis (SDS-PAGE) was used for protein separation based on molecular weight. The percentage of acrylamide in the resolving or stacking gel was determined by the molecular weight of the protein of interest. In this instance all gels consisted of a 5% stacking gel and a 10% resolving gel with the exception of mGluR5, G9a (8%) and H3K9Me2 (12%). 20 μg of protein was loaded and resolved using SDS-PAGE. Gel electrophoresis was conducted at 80V while the protein was in the stacking gel, once it migrated to the resolving gel the voltage was increased to 120V and ran for 90 mins. Samples were transferred to a 0.45 μm polyvinylidene difluoride (PVDF) membrane (Analab) for 1 hour at 100V and blocked in 5% milk blocking solution made in tris-buffered saline containing tween®-20 (TBS-T, Sigma) for 90 mins. Primary antibodies (FIG. 5) were diluted in 5% BSA in TBS-T and incubated with membranes overnight at 4° C. or for 2 hours at room temperature. After incubation with primary antibodies the membranes were washed in TBS-T for 4×10 minutes before incubation with 1:2000 anti-rabbit and 1:2000 anti-mouse Alexa Fluro® conjugated secondary antibodies (Invitrogen) in 2% milk for 1 hour at room temperature. Membranes were washed in TBS-T for 4×10 minutes and in TBS for 1×10-minute wash. Proteins were visualized using Odyssey® infrared imaging system. Protein expression was quantified using Image Studio Lite (Version 5.2) and expression intensities were normalized to a house keeping protein, α-Tubulin or β-actin.

Another data set addresses 5-HT2Rs. To be noted: canonical signaling activity measured; read-out: affinity for the 5-HT2Rs; cited from earlier work.
A further data set relates to cerebral organoids. To be noted: 5-MeO-DMT treated cerebral organoids; cited from earlier work.
The conditions of data set [1]: i.p. administration, rodents; cited from earlier work.
In data set [2] the test system is MAO-A and cytochrome P450 2D6 (CYP2D6). To be noted: cited from earlier work.

Take `COc1ccc2[nH]cc(CCN(C)C)c2c1` [5-MeO-DMT, 5-methoxy-N,N-dimethyltryptamine]: the FosB expression result was “unchanged by any of the treatments” with FosB (PFC, 24 h and 120 h, any of the treatments); “no change in FosB levels” in the data set with FosB (amygdala, 24 h, any treatment); “no post hoc differences between treatment groups” in the data set on FosB (amygdala, 120 h, cocaine x 5-MeO-DMT interaction p=0.0353); “does not regulate the expression” in the data set on FosB (dorsal striatum, 24 h, 5-MeO-DMT alone); “no change in expression levels” in the data set with FosB (dorsal striatum, 120 h, irrespective of the treatment group); “increase FosB expression” in the data set with FosB (nucleus accumbens, 24 h, cocaine+10 mg/kg 5-MeO-DMT (1 h post last cocaine)). For the same molecule, the FosB expression result in the data set on FosB (nucleus accumbens, 24 h, cocaine+20 mg/kg 5-MeO-DMT (1 h post last cocaine)) is “no significant difference in FosB expression levels relative to the saline+vehicle control group”; in the data set on FosB (nucleus accumbens, 24 h, saline+10 mg/kg 5-MeO-DMT single dose) it was “not 10 mg/kg increasing expression”; in the data set with FosB (nucleus accumbens, 24 h, saline+20 mg/kg 5-MeO-DMT single dose), “increasing expression”; with FosB (nucleus accumbens, 120 h, 5-MeO-DMT alone), “does not persist to 120 hours”. Also, on 5-HT2Rs, the Ki was > 1 µM. Further, in the data set on cerebral organoids, the mGluR5 receptor expression entry is reported as “decrease in mGluR5 receptor expression”. Moreover, in data set [1], the “terminal half-life (t½)” value was 12 to 19 min. The “time of maximal drug concentration” value in data set [1] is 5 to 7 min. Further, the primary metabolic pathways entry in data set [2] is “deamination by MAO-A and O-demethylation by cytochrome P450 2D6 (CYP2D6)”.
